In patent publication US6130333A, “Bicyclic imidazolyl derivatives as phosphodiesterase inhibitors, pharmaceutical compositions and method of use” (Monsanto Company, priority 1998, dated 2000):
Blank lines part the entries; values can stand above or below the compound they belong to.

Tests used:
[1] = test system: cAMP PDE from bovine aorta; assay: Assay for inhibition of cAMP PDE; assay type: biochemical; settings: bovine aorta enzyme; [3H]cAMP substrate; averaged where multiple testing
Protocol: (§1) Phosphodiesterase enzymes were partially purified according to the procedures reported by Francis, S. H., and Corbin, J. D. (1988) in Methods in Enzymology, Vol. 159, pp. 722-729, Academic Press, New York and Bradford, M. M. in (1976) Anal. Biochem. 72, 248-254. Specifically, the purification was accomplished by chromatography of a bovine aorta extract on a DEAE Tris-acryl column. The eluted fractions were assayed for the various specific activities. The specific enzyme activities were pooled and concentrated. […] The cGMP-specific phosphodiesterase was assayed in the presence of 1 μM cGMP. The calcium/calmodulin dependent enzyme activity was assayed in the presence of 1 μM cGMP, 0.5 units calmodulin (Sigma P-0270, phosphodiesterase 3',5'-cyclic nucleotide activator from bovine heart) per ml of reaction, and 100 μM Ca^2+.
(§2) Enzyme assays were performed in Millipore 96-well polystyrene microtiter plates in a total assay volume of 100 μL of buffer containing 100 mM Tris-HCl and 5 mM MgSO4 at pH 7.5. cGMP PDE inhibitor compounds were dissolved in DMSO at a concentration of 10 mM and then diluted into the assay to give a final concentration of DMSO in the assay of 1% which has no effect on the enzymatic reaction. The reaction mixture consisted of 10 μL diluted inhibitor, 10 μL of a solution of the appropriate phosphodiesterase enzyme preparation, and 60 μL buffer. The reaction was initiated by the addition 20 μL of 5μM [3H]cGMP (100,000 DPM/well). The tritiated cGMP nucleotides were obtained from DuPont/New England Nuclear Lifesciences Company, Boston, Mass. as an ammonium salt (NET-554 guanosine 3',5'-cyclic phosphate, [8,5'-^3 H]).
(§3) After a 30 minute incubation at room temperature the reaction was stopped by the addition of 50 μL of 210 mM ZnSO4 followed by an addition of 50 μL of freshly prepared 19 mM Ba(OH)2 to specifically precipitate the radiolabled 5'-nucleotide product. The Zn--Ba precipitate was filtered onto glass-fiber filters mats (Wallac, Filtermat A, 102×258 mm) using an automated 96-well harvester (TOMTEC Harvester 96®, MACH II). The precipitate was washed from the microtiterplate to the filtermat with a total volume of 1 ml/well of a wash buffer containing 1 mM NaOH and 100 mM NaCl. The filtermat were dried in a microwave oven and placed in a Wallac sample bag for use with the 1205 BetaPlate™. 10 ml of Beta Plate Scint (LKB) was added to the bag and allowed to diffuse throughout the filter. The radiolabel was then quantitated using a LKB/Wallac 1205 BetaPlate™ scintillation counter. Inhibitor dilution curves were created using six concentrations of the inhibitor in duplicate. IC50 values were determined from a linear regression of a Log Logit transformation of the data. M&B 22,948 (2-o-propoxyphenyl-8-azapurin-6-one) was used as the standard control inhibitor for cGMP PDE and was prepared according to U.S. Pat. No. 3,819,631.
The procedure for the inhibition of cAMP PDE was identical to the procedure for the cGMP-specific phosphodiesterase assay above, except that partially purified cAMP PDE from bovine aorta was collected as pooled from the DEAE tris-acryl column based upon its elution relative to cGMP-specific PDE as well as its specificity for cAMP by hydrolysis and then used. The partially purified cAMP PDE was stored as a concentrated solution at 4° C. This enzyme was diluted 1:30 with an assay buffer prior to use. A substrate solution of [^3 H]cAMP was added to 5 μM adenosine 3', 5'-cyclic monophosphate sodium salt in assay buffer to give a solution with a specific activity of 1000 CPM/pmole (100,000 CPM/20 μl). The reaction was initiated by the addition 20 μL of 5 μM [3H]cAMP (100,000 DPM/well). The tritiated cAMP nucleotides were obtained from DuPont/New England Nuclear Lifesciences Company, Boston, Mass. as an ammonium salt (NET-275 adenosine 3',5'-cyclic phosphate, (2,8-^3 H]). Ro 20-1724 was used as the standard control (obtained from Hoffmann LaRoche, Nutley, N.J.).

[2] = molecular target: T1, cGMP-specific PDE from bovine aorta (Bos taurus, UniProt Q28156); assay: Assay for inhibition of cGMP PDE; assay type: biochemical; settings: bovine aorta enzyme; 30 minute incubation at room temperature, pH 7.5; averaged where multiple testing
T1 construct: chromatography of a bovine aorta extract on a DEAE Tris-acryl column; from tissue; host or cells: bovine aorta
Protocol: as §1
The partially purified cGMP-specific PDE from bovine aorta was stored as a concentrated solution in glycerol at 4° C. Prior to use it was diluted approximately 1:3000 with an assay buffer containing 100 mM Tris-HCl and 5 mM MgSO4 at pH 7.5 to give approximately 10% conversion of cGMP substrate to GMP in a 30 minute reaction time.
as §2, §3

[3] = test system: ca/calmodulin dependent cGMP PDE from bovine aorta; assay: Assay for inhibition of calcium/calmodulin dependent cGMP phosphodiesterase enzyme (Ca PDE); assay type: biochemical; settings: CaCl2 and calmodulin, averaged where multiple testing, read-out: Ca GMP PDE IC50
Protocol: as §1, §2, §3
The procedure for the calcium/calmodulin dependent cGMP PDE assay was identical to the cGMP-specific phosphodiesterase assay described above, except for the following changes noted below. Partially purified ca/calmodulin dependent cGMP PDE enzyme from bovine aorta was collected as a pool based upon its elution relative to cAMP-dependent PDE and conformational changes introduced by the addition of 1 mM EDTA for 1 hour at 4° C. It was then diluted 1:1800 in assay buffer containing 143 μM CaCl2 and 0.7 units of calmodulin/ml and 70 μl of this enzyme solution was used per assay well. The standard control used was Vinpocetine purchased from Gedeon Richter LTD, Budapest, Hungary.

[4] = In vivo blood pressure measurement in rats (femoral artery catheter); design: species or system male Sprague Dawley rats; settings: intraperitoneal injection
Text: The FIGURE is a plot of mean blood pressure (mmHg) versus time (min) for anesthetized male Sprague Dawley rats (Charles River Laboratories, Wilmington, Mass.) following administration of a cyclic GMP phosphodiesterase inhibitor of this in vention by intraperitoneal injection.
Polyethylene catheters (PE50) were inserted into the femoral artery and vein of anesthetized male Sprague Dawley rats (Charles River Laboratories,Wilmington, Mass.) in order to monitor the mean arterial pressure and administer test compounds. Following surgery, the animals were place in individual restraining cages and allowed to regain consciousness. Infusion of 0.9% sodium chloride via the femoral vein (0.07 ml/kg/min) was begun and continued throughout the study period. Observations were begun approximately 90 minutes after the initiation of infusion to allow the animals to fully regain consciousness. Blood pressure was continuously monitored via the femoral artery with a pressure transducer (type 041-500-503; Cobe, Lakewood, Colo.) connected to a Grass Model 7E polygraph. Mean arterial pressure and heart rates were recorded at 3 minute intervals by a computerized data acquisition system. Cyclic GMP phosphodiesterase inhibitor (Example 41) was administered as an intraperitoneal injection, alternatively the inhibitor could have been administered directly into the catheter as an intravenous bolus.

[5] = rats; McMahon et al. 1989; cited from earlier work

- IC50 [1]: > 100 µM
- IC50 [2]: 0.004 µM
- IC50 [3]: > 100 µM
SMILES: Fc1ccccc1Cn1c(-c2ccc3c(c2)OCO3)nc2ccccc21 [Example 30, 2-(1,3-Benzodioxol-5-yl)-1-(2-fluorophenylmethyl)-1H-benzimidazole]

- IC50 [1]: 11.9 µM
- IC50 [2]: 0.003 µM
- IC50 [3]: 64.5 µM
SMILES: c1ccc2c(c1)nc(-c1ccc3c(c1)OCO3)n2Cc1ccc2c(c1)OCO2 [Example 41, 2-(1,3-Benzodioxol-5-yl)-1-[(1,3-benzodioxol-5-yl)methyl]-1H-benzimidazole]
- reduction in blood pressure [4]: A reduction in blood pressure was observed

- IC50 [1]: 18 µM
- IC50 [2]: 0.009 µM
- IC50 [3]: 60 µM
SMILES: Cc1ccc(-c2nc3ccccc3n2Cc2ccc3c(c2)OCO3)cc1 [Example 42, 1-[(1,3-benzodioxol-5-yl)methyl]-2-(4-methylphenyl)-1H-benzimidazole]

- IC50 [1]: 7.3 µM
- IC50 [2]: 0.003 µM
- IC50 [3]: > 100 µM
SMILES: c1ccc(Cn2c(-c3ccc4c(c3)OCO4)nc3cccnc32)cc1 [Example 43, 2-(1,3-Benzodioxol-5-yl)-3-(phenylmethyl)-3H-imidazo[4,5-b]pyridine]

More lines, now with the values behind:

SMILES: c1ccc(Cn2c(-c3ccc4c(c3)OCO4)nc3ccccc32)cc1 [Example 25, 2-(1,3-Benzodioxol-5-yl)-1-phenylmethyl-1H-benzimidazole]
- IC50 [1]: 12.4 µM
- IC50 [2]: 0.011 µM
- IC50 [3]: 75 µM

SMILES: c1ccc2cc(Cn3c(-c4ccc5c(c4)OCO5)nc4ccccc43)ccc2c1 [Example 29, 2-(1,3-Benzodioxol-5-yl)-1-(2-naphthalenylmethyl)-1H-benzimidazole]
- IC50 [1]: 5.2 µM
- IC50 [2]: 0.024 µM
- IC50 [3]: 60 µM

SMILES: CCCOc1ccccc1-c1nc2[nH]nnc2c(=O)[nH]1 [M&B 22,948, 2-o-propoxyphenyl-8-azapurin-6-one]
- mean arterial pressure [5]: dose-dependent reduction in the mean arterial pressure
- urinary cGMP (and not cAMP) levels [5]: increase in urinary cGMP (and not cAMP) levels
